Reference: paper PMC12703428, “Development of Granzyme A Turn‐ON Fluorescent Activity‐Based Probes” (Chembiochem, 2025)
Square brackets hold non-standard residues; d marks the D form. Ends that are not written are not given here. Oic = O=C(O)[C@@H]1C[C@@H]2CCCC[C@@H]2N1; Tic = O=C(O)[C@@H]1Cc2ccccc2CN1

How the values were obtained:
[1] = tested on: lysates of MDA‐MB‐231, HEK293T, Jurkat, and HeLa cells; assay: Labeling in lysates of GzmA nonexpressing cells; format: biochemical; conditions: HeLa lysates 1 mg/mL, 1 h, 37 °C
Method: Figure 4 Characterization of qABPs in native proteomes. A) Labeling of GzmA by 5 and 6 in lysates of various cell lines (1 h, 37 °C). B) Stability of 5 and 6 in buffer and cell media (11 h, 37 °C). The hydrolysis of probes was measured by monitoring the production of Cy5 fluorescence signal over time. […] C) Labeling of GzmA by probes 3 –6 in NK‐92 cells (2 h, 37 °C). D) Flow cytometry analysis of protein labeling in NK‐92 cells by 3 –5. […] E) Flow cytometry analysis of concentration‐dependent GzmA labeling in NK‐92 cells and S/N of 5 (5 μM, 2 h, 37 °C). […]
Briefly, hGzmA (50 nM) was incubated with either inhibitor 1 or 2 (200 nM), and GzmA fluorogenic substrate […] (100 µM) in 50 mM Tris, 150 mM NaCl, 0.01% Triton X-100 (pH 8) for 15 hr at 37 °C. Recorded fluorescence at Ex/Em: 380/460 nm for residual GzmA […]
Cat. No. CRL-2570) and 4T1 (ATCC Cat. No. CRL-2539) cells were cultured in RPMI supplemented with 10% fetal bovine serum (FBS), 1% penicillin/streptomycin (PS), and 2 mM L-glutamine, while HEK293T and MDA-MB-231 cells (ATCC Cat. No. HTB-26) were cultured in DMEM supplemented likewise as described above. […] The supernatant was collected, and protein concentration was measured using a Pierce BCA protein assay. […]
C. In-gel fluorescence imaging […]

[2] = target: T1, neutrophil elastase (NE) (Homo sapiens, UniProt P08246); assay: Cross-reactivity labeling, neutrophil elastase; format: biochemical; conditions: protease 100 nM, probe 100 nM, 2 h, 37 °C, in-gel fluorescence
T1 sequence (P08246 30-267): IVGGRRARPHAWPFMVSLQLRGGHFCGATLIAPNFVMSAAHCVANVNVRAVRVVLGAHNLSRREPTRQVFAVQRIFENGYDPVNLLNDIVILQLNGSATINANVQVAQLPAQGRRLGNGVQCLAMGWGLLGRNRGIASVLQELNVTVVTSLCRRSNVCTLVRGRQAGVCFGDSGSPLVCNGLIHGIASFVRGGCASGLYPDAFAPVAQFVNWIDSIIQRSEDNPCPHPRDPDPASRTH
Method: Protease (100 nM) HNE PR3 GzmK GzmA
Protease (100 nM) GzmA GzmK
Supplementary Figure 2. Cross-reactivity of probes. (A) Labeling of GzmA, GzmK, PR3, and HNE
(100 nM, 2 h, 37 °C) by 100 nM of 5 and 6. (B) Labeling of GzmA and GzmK (100 nM, 2 h, 37 °C) by
100 nM of 3 – 6. (C) Concentration-dependent labeling of GzmA and GzmK (100 nM, 2 h, 37 °C) by 5 and
6. Protein samples were analyzed by SDS-PAGE and in-gel fluorescence scanning for Cy5 signal.
Protein loading was confirmed by SYPRO Ruby staining. […]

## IGNR [compound 5]
[1]
  Cross-reactivity in lysates of GzmA nonexpressing cells: no detectable cross‐reactivity
[2]
  Labeling of NE (cross-reactivity): Neither probe 5 nor 6 showed detectable labeling

## [Tic]G[Oic]R [compound 6]
[1]
  Cross-reactivity in lysates of GzmA nonexpressing cells: no detectable cross‐reactivity
[2]
  Labeling of NE (cross-reactivity): Neither probe 5 nor 6 showed detectable labeling
